Entries after “also recorded” stand apart in the source; their conditions may differ. Where two headings read alike, the source gives them in different places. Marks after values point to notes of the source that are not given here.
What was measured:
[1] = test system: PTZ-induced clonic seizures in mice; experiment: s.c. PTZ-induced clonic seizure test, with isobolographic analysis; assay type: in vivo
Description: Following PTZ administration, mice were placed separately in transparent Plexiglas cages (25 cm × 15 cm × 10 cm) and observed for 30 min for the occurrence of clonic seizures. Clonic seizure activity was defined as the clonus of the whole body lasting for over 3 s, with an accompanying loss of righting reflex.
To determine the ED50 mix value, both drugs in the mixture (at proportionally raised doses) were administered to the mice and a dose–response relationship for the mixture was denoted using Litchfield and Wilcoxon [25]’s log-probit method. • Statistical comparison of the experimentally derived ED50 mix values with their corresponding theoretically additive ED50 add values was undertaken using the unpaired Student’s t test, according to Tallarida [30]. • Graphical illustration of the examined interactions as isobolograms (i.e., simple forms of interaction visualizations).

[2] = test system: PTZ-induced kindling in mice; experiment: PTZ-induced kindling; assay type: in vivo; conditions: 33 daily i.p. injections; AS-1 15, 30 and 60 mg/kg, VPA 150 mg/kg; PTZ 40 mg/kg i.p. every 48 h, 17 injections; vs PTZ-kindled control
Description: All suspensions and solutions were prepared freshly and administered in a constant volume of 0.1 ml per 10 g of body weight. In all experiments, AS-1 and VPA were injected i.p. Control animals received vehicles only. […] After each PTZ injection, mice were placed separately into transparent cages for 30 min for behavioral observation to assign an appropriate seizure score. […] After each PTZ injection, the mean seizure severity score for each experimental group was calculated. Non-kindled (control) mice were treated as kindled animals, except that they were injected with normal saline instead of PTZ. Experimental grouping for PTZ kindling was as follows: […]

PTZ-kindled mice [3] = experiment: locomotor activity test in PTZ-kindled mice; assay type: in vivo; conditions: repeated i.p. injection, AS-1 15–60 mg/kg, VPA 150 mg/kg, day 34
Description: Twenty-four hours after the last PTZ injection (on day 34), mice were subjected to the locomotor activity test, the elevated plus maze test, and the forced swim test. Forty-eight hours after the last PTZ injection (on day 35) the i.v. PTZ seizure threshold test was performed. Spontaneous locomotor activity of mice was monitored using the […] system supported by SedaCom32 software (Panlab/Harvard Apparatus, Barcelona, Spain) according to the method described in detail elsewhere.

PTZ-kindled mice [4] = experiment: elevated plus maze test in PTZ-kindled mice; assay type: in vivo; conditions: repeated i.p. injection, AS-1 15–60 mg/kg, VPA 150 mg/kg
Description: (§1) Twenty-four hours after the last PTZ injection (on day 34), mice were subjected to the locomotor activity test, the elevated plus maze test, and the forced swim test. Forty-eight hours after the last PTZ injection (on day 35) the i.v. PTZ seizure threshold test was performed. The elevated plus maze test was used to assess the anxiety-like behavior in kindled animal, as described in detail in our previous study.

PTZ-kindled mice [5] = experiment: forced swim test in PTZ-kindled mice; assay type: in vivo; conditions: repeated i.p. injection, AS-1 15–60 mg/kg, VPA 150 mg/kg, vs kindled control
Description: as §1, with “The forced swim” for “The elevated plus maze”, “the depressive-like” for “the anxiety-like”, “kindled animals. The procedure was performed” for “kindled animal,”, “detail elsewhere.” for “detail in our previous study.”

mice [6] = experiment: passive avoidance task; assay type: in vivo; conditions: i.p. 30 min before, AS-1 81.12 mg/kg, VPA […], combination AS-1 27.6 + VPA 59.9 mg/kg
mice [7] = experiment: grip strength test; assay type: in vivo; conditions: i.p. 30 min before, AS-1 81.12 mg/kg, VPA […], combination AS-1 27.6 + VPA 59.9 mg/kg
Description: The time before the commencement of the grip strength test (after drug administration) was identical to that of the PTZ test. This experimental procedure has been described in detail in our earlier studies.

mice [8] = experiment: chimney test; assay type: in vivo; conditions: i.p. 30 min before, AS-1 81.12 mg/kg, VPA […], combination AS-1 27.6 + VPA 59.9 mg/kg
Description: [31]’s chimney test. The pretreatment time for AS-1 and VPA in the chimney test was identical to that of the PTZ test. This experimental procedure has been described in detail in our earlier studies.

[9] = test system: PTZ-induced clonic seizures in mice; conditions: i.p., cited from earlier work
[10] = test system: 6-Hz (32 mA) psychomotor seizures; conditions: mice, i.p., cited from earlier work; for ED50 (6 Hz, 32 mA): ref [10], [12]; for anticonvulsant activity in 6 Hz, 32 mA: known AED profile, Fig. 1
[11] = test system: maximal electroshock (MES) seizure; conditions: mice, i.p.; known AED profile, Fig. 1; cited from earlier work
6-Hz seizures = test system: 6-Hz seizures; design: method as in PMID 28449218; conditions: 6-Hz test; ref [17]; cited from earlier work
hepatoma HepG2 cells [12] = experiment: hepatotoxicity, HepG2 cell viability; assay type: cell-based
PTZ-kindled mice [13] = test system: PTZ-kindled mice; design: method as in PMID 30247871; conditions: former study, ref [13]; cited from earlier work
[14] = test system: 6-Hz-induced seizures (44 mA); experiment: 6-Hz (44 mA) seizure model; assay type: in vivo; conditions: Mus musculus, ip; mice, i.p., 30 min before the test; 95% confidence intervals in parentheses
kindled mice = experiment: i.v. PTZ seizure threshold test in kindled mice; assay type: in vivo
naïve mice = experiment: i.v. PTZ seizure threshold test in naïve mice; assay type: in vivo; conditions: acute
Description: All suspensions and solutions were prepared freshly and administered in a constant volume of 0.1 ml per 10 g of body weight. […] The timed i.v. PTZ test was used to evaluate the changes in seizure threshold in both naïve and kindled mice. The experimental procedure has been described in detail in our earlier studies.

[15] = test system: L-type Ca^2+ (diltiazem site, antagonist radioligand); experiment: L-type Ca2+ channel (diltiazem site) binding; conditions: 100 μM; rat cerebral cortex
[16] = test system: GABA transporter (antagonist radioligand); experiment: GABA transporter binding; conditions: 100 μM; rat cerebral cortex
TRPV1 (VR1) (h) = target: T1, TRPV1 (VR1) (h) (Homo sapiens, UniProt Q8NER1); experiment: TRPV1 functional assay (antagonist effect); assay type: cell-based; conditions: human recombinant (CHO cells), read-out: % inhibition of control agonist/antagonist response (antagonist effect)
T1 construct: Cerep Laboratories (contract testing)

CB1 (h) = target: T2, CB1 (h) (Homo sapiens, UniProt P21554); experiment: CB1 functional assay (agonist and antagonist effect); assay type: cell-based; conditions: human recombinant (CHO cells), read-out: % inhibition of control agonist/antagonist response (antagonist effect)
T2 construct: Cerep Laboratories (contract testing)

[17] = test system: fast voltage-gated sodium channels; experiment: patch clamp of sodium currents in prefrontal cortex pyramidal neurons; assay type: cell-based, rats; conditions: 100 μM, holding potential − 65 mV, n = 6, p > 0.05
[18] = parallel artificial membrane permeability assay (PAMPA); assay type: in vitro ADME; conditions: ± SD, read-out: Pe, permeability coefficient
[19] = metabolic stability on human liver microsomes (HLMs); assay type: in vitro ADME; conditions: 120 min incubation with HLMs
CYP3A4 = CYP3A4 (Homo sapiens, UniProt P08684)
CYP2D6 = CYP2D6 (Homo sapiens, UniProt P10635)
CYP2C9 = CYP2C9 (Homo sapiens, UniProt P11712); conditions: 10 μM
Na^+ channel (site 2) = test system: Na^+ channel (site 2); design: method as in Rapacz et al. [12]; conditions: rat cerebral cortex, ref Rapacz et al. [12], cited from earlier work
[20] = test system: L-type Ca^2+ (verapamil site, antagonist radioligand); design: method as in Rapacz et al. [12]; conditions: rat cerebral cortex, ref Rapacz et al. [12], cited from earlier work
[21] = test system: N-type Ca^2+ (antagonist radioligand); design: method as in Rapacz et al. [12]; conditions: 100 μM; rat cerebral cortex; ref Rapacz et al. [12]; cited from earlier work
[22] = test system: NMDA (antagonist radioligand); design: method as in Rapacz et al. [12]; conditions: rat cerebral cortex, ref Rapacz et al. [12], cited from earlier work
hepatoma HepG2 cells [23] = conditions: 24 h incubation, only at the highest used dose of 100 μM; ref [12]; cited from earlier work
hERG potassium channel = hERG potassium channel (Homo sapiens, UniProt Q12809); experiment: in vitro
zebrafish larvae = experiment: EEG discharge assessment in zebrafish larvae exposed to PTZ; conditions: 5 mM, 20 h incubation, then 20 mM PTZ for 5 min; vs vehicle-incubated control
[24] = repeated i.p. pretreatment 15–60 mg/kg
[25] = 15 mg/kg i.p., 30 min before the test
[26] = 30 mg/kg and 60 mg/kg i.p. (p < 0.01 and p < 0.001)

Sequence of CYP2D6 (P10635 whole entry): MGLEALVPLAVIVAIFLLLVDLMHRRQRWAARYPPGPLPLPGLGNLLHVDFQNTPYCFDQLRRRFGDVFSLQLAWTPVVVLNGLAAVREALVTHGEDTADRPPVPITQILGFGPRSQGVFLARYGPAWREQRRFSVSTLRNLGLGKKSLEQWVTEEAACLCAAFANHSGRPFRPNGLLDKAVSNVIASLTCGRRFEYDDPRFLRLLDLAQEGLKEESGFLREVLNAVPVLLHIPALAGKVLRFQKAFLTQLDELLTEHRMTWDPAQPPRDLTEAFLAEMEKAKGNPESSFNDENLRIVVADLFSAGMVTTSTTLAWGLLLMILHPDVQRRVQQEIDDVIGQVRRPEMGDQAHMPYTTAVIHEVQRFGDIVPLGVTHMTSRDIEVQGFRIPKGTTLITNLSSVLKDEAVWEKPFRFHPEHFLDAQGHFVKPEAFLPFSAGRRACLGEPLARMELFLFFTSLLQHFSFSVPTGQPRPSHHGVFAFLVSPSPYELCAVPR
T1 sequence (Q8NER1 whole entry): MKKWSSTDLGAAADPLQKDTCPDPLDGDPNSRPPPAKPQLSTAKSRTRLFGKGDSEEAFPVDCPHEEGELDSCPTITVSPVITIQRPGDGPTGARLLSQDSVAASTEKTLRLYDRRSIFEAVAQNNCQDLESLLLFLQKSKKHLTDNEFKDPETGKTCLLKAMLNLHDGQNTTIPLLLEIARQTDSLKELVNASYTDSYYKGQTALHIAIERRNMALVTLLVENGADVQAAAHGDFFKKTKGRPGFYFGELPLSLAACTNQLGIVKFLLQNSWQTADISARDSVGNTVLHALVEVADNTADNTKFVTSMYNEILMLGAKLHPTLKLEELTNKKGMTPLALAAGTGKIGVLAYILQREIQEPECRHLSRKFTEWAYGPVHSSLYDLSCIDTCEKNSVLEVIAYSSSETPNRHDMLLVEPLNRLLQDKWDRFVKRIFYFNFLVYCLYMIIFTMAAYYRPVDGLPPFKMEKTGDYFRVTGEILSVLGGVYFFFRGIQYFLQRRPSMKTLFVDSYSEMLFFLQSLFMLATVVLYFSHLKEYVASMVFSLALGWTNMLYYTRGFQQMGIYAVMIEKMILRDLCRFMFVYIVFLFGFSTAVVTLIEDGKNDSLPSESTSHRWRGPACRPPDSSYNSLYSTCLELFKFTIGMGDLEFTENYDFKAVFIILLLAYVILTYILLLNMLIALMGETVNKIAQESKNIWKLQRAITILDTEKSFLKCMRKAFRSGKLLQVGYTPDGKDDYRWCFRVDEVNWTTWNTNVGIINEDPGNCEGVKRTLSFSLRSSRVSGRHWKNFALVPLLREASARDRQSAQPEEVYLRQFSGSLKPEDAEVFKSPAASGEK
T2 sequence (P21554 whole entry): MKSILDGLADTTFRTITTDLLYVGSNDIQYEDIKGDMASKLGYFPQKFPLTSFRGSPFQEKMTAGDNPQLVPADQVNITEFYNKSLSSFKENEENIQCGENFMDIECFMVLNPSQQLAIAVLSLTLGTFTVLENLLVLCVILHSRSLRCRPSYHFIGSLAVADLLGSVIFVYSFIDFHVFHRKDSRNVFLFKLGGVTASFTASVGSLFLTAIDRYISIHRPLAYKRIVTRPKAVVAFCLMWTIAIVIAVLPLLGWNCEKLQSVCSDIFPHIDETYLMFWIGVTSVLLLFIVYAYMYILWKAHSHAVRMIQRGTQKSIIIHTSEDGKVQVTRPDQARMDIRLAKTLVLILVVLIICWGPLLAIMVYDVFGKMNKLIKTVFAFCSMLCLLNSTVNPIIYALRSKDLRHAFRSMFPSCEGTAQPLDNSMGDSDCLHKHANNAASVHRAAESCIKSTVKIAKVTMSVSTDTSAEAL
Sequence of CYP3A4 (P08684 whole entry): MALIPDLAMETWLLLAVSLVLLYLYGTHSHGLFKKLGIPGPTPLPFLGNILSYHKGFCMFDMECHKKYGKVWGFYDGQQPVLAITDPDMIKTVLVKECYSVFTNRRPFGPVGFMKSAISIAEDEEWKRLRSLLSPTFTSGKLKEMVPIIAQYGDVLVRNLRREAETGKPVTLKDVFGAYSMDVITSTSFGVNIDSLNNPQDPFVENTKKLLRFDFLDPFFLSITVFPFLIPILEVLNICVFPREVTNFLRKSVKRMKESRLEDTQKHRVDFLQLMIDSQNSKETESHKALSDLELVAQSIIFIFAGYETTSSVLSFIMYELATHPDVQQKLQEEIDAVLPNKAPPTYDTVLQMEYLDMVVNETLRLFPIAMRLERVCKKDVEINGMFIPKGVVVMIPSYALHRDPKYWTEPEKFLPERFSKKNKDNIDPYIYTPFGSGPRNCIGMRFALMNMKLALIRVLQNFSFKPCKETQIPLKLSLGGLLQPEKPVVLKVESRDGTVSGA
Sequence of CYP2C9 (P11712 whole entry): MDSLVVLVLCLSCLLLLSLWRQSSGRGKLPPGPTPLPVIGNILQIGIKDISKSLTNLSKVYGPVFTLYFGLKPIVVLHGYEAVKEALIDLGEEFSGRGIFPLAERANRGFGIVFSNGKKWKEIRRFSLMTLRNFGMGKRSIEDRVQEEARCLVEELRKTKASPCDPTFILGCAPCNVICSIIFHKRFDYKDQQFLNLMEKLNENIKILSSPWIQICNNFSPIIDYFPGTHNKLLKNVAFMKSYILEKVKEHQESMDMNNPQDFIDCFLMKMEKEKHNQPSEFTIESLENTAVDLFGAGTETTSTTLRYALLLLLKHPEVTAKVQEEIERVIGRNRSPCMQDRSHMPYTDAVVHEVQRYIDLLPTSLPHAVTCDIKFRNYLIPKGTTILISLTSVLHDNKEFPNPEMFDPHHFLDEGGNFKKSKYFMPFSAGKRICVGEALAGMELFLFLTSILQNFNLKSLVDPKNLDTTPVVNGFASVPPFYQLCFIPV
Sequence of hERG potassium channel (Q12809 whole entry): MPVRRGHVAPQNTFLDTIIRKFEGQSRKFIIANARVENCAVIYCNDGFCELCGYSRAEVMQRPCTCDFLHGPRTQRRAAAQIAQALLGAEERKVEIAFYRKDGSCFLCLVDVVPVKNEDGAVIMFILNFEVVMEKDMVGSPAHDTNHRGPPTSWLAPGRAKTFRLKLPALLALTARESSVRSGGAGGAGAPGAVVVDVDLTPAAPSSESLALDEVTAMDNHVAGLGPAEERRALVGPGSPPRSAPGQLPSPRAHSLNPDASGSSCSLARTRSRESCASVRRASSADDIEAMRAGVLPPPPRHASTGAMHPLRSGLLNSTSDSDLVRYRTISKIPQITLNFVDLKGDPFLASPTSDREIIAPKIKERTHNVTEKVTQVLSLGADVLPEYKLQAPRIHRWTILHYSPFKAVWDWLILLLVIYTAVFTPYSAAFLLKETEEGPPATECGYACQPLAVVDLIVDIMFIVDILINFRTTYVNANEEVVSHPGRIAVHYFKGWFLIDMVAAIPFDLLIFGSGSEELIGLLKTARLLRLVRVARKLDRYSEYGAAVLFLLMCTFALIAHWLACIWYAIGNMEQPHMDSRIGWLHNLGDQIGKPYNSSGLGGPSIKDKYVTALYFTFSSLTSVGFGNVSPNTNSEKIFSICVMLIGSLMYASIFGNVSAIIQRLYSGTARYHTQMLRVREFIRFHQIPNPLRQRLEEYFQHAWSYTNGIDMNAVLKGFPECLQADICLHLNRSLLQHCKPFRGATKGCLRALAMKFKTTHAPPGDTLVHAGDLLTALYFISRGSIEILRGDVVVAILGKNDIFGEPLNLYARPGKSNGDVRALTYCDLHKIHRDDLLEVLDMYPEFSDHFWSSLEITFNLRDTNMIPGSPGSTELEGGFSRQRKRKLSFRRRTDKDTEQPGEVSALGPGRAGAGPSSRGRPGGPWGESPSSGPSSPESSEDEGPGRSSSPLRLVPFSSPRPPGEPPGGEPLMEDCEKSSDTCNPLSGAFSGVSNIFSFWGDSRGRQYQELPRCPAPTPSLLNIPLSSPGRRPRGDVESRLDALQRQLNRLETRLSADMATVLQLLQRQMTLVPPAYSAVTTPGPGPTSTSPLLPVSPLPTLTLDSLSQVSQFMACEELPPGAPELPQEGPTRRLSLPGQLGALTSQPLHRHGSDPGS

Structure (SMILES): CCCC(CCC)C(=O)O [VPA, valproic acid, reference compound]
- protection against PTZ-induced clonic seizures ([1]; 125 mg/kg i.p.): 12.5%
- protection against PTZ-induced clonic seizures ([1]; 150 mg/kg i.p.): 37.5%
- protection against PTZ-induced clonic seizures ([1]; 200 mg/kg i.p.): 62.5%
- effect on kindling development (mean seizure severity score) [2]: suppressed kindling progression
- effect on spontaneous locomotor activity (PTZ-kindled mice [3]): did not affect locomotor activity
- effect on percentage of open arm entries and percentage of time spent in open arms (PTZ-kindled mice [4]): did not produce any significant changes
- effect on total immobility duration (PTZ-kindled mice [5]): significantly decreased the immobility time
- Retention time, median (25th; 75th percentiles) (mice [6]): 180 (180; 180) s
- Muscular strength, mean grip strength ± SEM (mice [7]): 104.7 ± 2.8 g
- Motor coordination, percentage of animals showing motor coordination impairment (mice [8]): 12.5%
- ED50 (s.c. PTZ) ([9]; earlier study, ref [10], [12]): 239.45 mg/kg
- ED50 (6 Hz, 32 mA) [10]: 130.65 mg/kg

Structure (SMILES): COC[C@@H](NC(C)=O)C(=O)NCc1ccccc1 [LCS, lacosamide, reference compound]
- anticonvulsant activity in MES [11]: active
- anticonvulsant activity in 6 Hz, 32 mA [10]: active

Structure (SMILES): CC[C@@H](C(N)=O)N1CCCC1=O [LEV, levetiracetam]
- anticonvulsant activity in 6 Hz, 32 mA [10]: active
- ED50 at 44 mA versus ED50 at 32 mA stimulus intensity (6-Hz seizures): at least 50 times

Structure (SMILES): COc1cccc2c1C(=O)c1c(O)c3c(c(O)c1C2=O)C[C@@](O)(C(=O)CO)C[C@@H]3O[C@H]1C[C@H](N)[C@H](O)[C@H](C)O1 [DX, doxorubicin, reference compound]
- HepG2 cells' viability (hepatoma HepG2 cells [12]; 1 μM): ~ 40 % of control

Structure (SMILES): CCC1(C)CC(=O)NC1=O (stereo not drawn) [ETX, ethosuximide]
- anticonvulsant activity in scPTZ ([9]; known AED profile, Fig. 1): active

Structure (SMILES): N#CC(C#N)=NNc1cccc(Cl)c1 [CCCP, carbonyl cyanide 3-chlorophenylhydrazone, reference compound]
- HepG2 cells' viability (hepatoma HepG2 cells [12]; 10 μM): ~ 40 % of control

Structure (SMILES): CC(C(=O)N1CCN(c2cccc(C(F)(F)F)c2)CC1)N1C(=O)CCC1=O (stereo not drawn) [KA-11, 1-(1-oxo-1-(4-(3-(trifluoromethyl)phenyl)piperazin-1-yl)propan-2-yl)pyrrolidine-2,5-dione]
- effect on depressive-like behavior caused by PTZ-induced kindling (PTZ-kindled mice [13]): prevented the depressive-like behavior

Structure (SMILES): CC(C(=O)NCc1ccccc1)N1C(=O)CCC1=O (stereo not drawn) [AS-1, N-benzyl-2-(2,5-dioxopyrrolidin-1-yl)propanamide]
- ED50 ([1]; Mus musculus, drug alone i.p. 30 min before s.c. PTZ 100 mg/kg, ± SEM, read-out: ED50 against PTZ-induced clonic seizures): 81.1 ± 10.4 mg/kg
- ED50 [14]: 75.4 mg/kg
- effect on kindling development (mean seizure severity score) [2]: significantly suppressed kindling development
- effect on spontaneous locomotor activity (PTZ-kindled mice [3]): did not affect locomotor activity
- effect on percentage of open arm entries and percentage of time spent in open arms (PTZ-kindled mice [4]): did not produce any significant changes
- effect on seizure threshold for the first myoclonic twitch (kindled mice; repeated i.p. injection of 60 mg/kg, 48 h after last PTZ, vs non-kindled control): significantly increased the seizure threshold
- effect on threshold for forelimb tonus (kindled mice; [24]): No changes
- effect on threshold for generalized clonus (kindled mice; [24]): No changes
- effect on threshold for generalized clonus (naïve mice; [25]): did not affect significantly
- effect on threshold for the first myoclonic twitch (naïve mice; [25]): did not affect significantly
- effect on threshold for generalized clonic seizure (naïve mice; [26]): raised the thresholds
- effect on threshold for the first myoclonic twitch (naïve mice; [26]): raised the thresholds
- effect on susceptibility to PTZ-induced forelimb extension (forelimb tonus threshold) (naïve mice; 15–60 mg/kg i.p.): did not affect
- Retention time, median (25th; 75th percentiles) (mice [6]): 180 (146; 180) s
- Muscular strength, mean grip strength ± SEM (mice [7]): 99.9 ± 2.2 g
- Motor coordination, percentage of animals showing motor coordination impairment (mice [8]): 0%
- % inhibition of control-specific binding [15]: 10.2 (100) %
- % inhibition of control-specific binding [16]: 2.4 (100) %
- inhibition at 100 µM (TRPV1 (VR1) (h)): 4.3%
- inhibition at 100 µM (CB1 (h)): 5.6%
- maximal amplitude of sodium currents normalized to control (1.0 in control) [17]: 0.93 ± 0.06
- Papp [18]: 9.8 ± 2 ×10⁻⁶ cm/s
- Phase I metabolism in human (metabolites by UPLC) [19]: no presence of metabolites; also recorded: No metabolites found
- HepG2 viability (hepatoma HepG2 cells [12]; 100 μM, 72 h incubation, ± SD): 82.3 ± 6.5^a Percentage of control
- effect on HepG2 cells' viability (hepatoma HepG2 cells [12]; only at the highest concentration used of 100 μM, 72 h, p < 0.05): slight but statistically significant effect
- ED50 (6 Hz, 32 mA) [10]: 24.66 mg/kg
- effect on CYP3A4 activity (CYP3A4): No significant effect
- effect on CYP2D6 activity (CYP2D6): No significant effect
- CYP2D6 activity (CYP2D6; human, 10 μM): 104.4 ± 0.5^a Percentage of control
- CYP2C9 activity (CYP2C9): 67.0 ± 3.6^a Percentage of control
- % inhibition of control-specific binding (Na^+ channel (site 2); 100 μM): 15.9%
- % inhibition of control-specific binding (Na^+ channel (site 2); 500 μM): 56.0%
- % inhibition of control-specific binding ([20]; 100 μM): 15.0%
- % inhibition of control-specific binding ([20]; 500 μM): 45.0%
- % inhibition of control-specific binding [21]: 0.2 (100) %
- % inhibition of control-specific binding ([22]; 100 μM): 15.0%
- % inhibition of control-specific binding ([22]; 200 μM): 35.0%
- effect on HepG2 cells (hepatoma HepG2 cells [23]): weak, statistically significant toxic effect
- inhibition at 100 µM (hERG potassium channel): 0.8%
- effect on number of epileptiform discharges during 20 min (zebrafish larvae): significantly reduced
